In one experiment the test system is P. aeruginosa PAO750. Type of experiment: cell-based, Pseudomonas aeruginosa. The following applies: broth microdilution, 96-well, EUCAST, OD600, Iron -, at least triplicate. On the procedure:
(§1) The MIC was determined by broth microdilution method in 96-well plates with 100 µL assay volume per well following EUCAST instructions ([116], [117]) for E. coli ATCC 35218, E. coli ATCC 25922 ΔTolC, E. coli MG1655, Pseudomonas aeruginosa ATCC 27853, P. aeruginosa PAO750, Klebsiella pneumoniae ATCC 13883, Moraxella catarrhalis ATCC 25238, Acinetobacter baumannii ATCC 19606, Bacillus subtilis DSM 10, Staphylococcus aureus ATCC 25923, and Micrococcus luteus DSM 20030. Listeria monocytogenes DSM 20600 (1 day of incubation at 37°C) and Mycobacterium smegmatis ATCC 607 (2 days of incubation at 37°C) were grown in BHI broth supplemented with 1% (vol/vol) Tween 80. Candida albicans FH2173 was grown in MHIIB over 2 days of incubation at 37°C (pre-culture 2 days at 28°C). Approximate inoculation cell density for all strains was 500,000 CFU/mL, except 1,000,000 CFU/mL were used for M. smegmatis and C. albicans. For all fungal screenings 100,000 spores/mL were used and incubated at 37°C for Aspergillus flavus ATCC 9170 (MHIIB) and 25°C for Z. tritici MUCL45407 (4 g/L yeast extract, 4 g/L malt extract, 4 g/L sucrose) and Fusarium oxysporum ATCC 7601 (potato dextrose broth, Sigma). Growth inhibition was detected by optical density (600 nm) or for M. luteus, L. monocytogenes, C. albicans, M. smegmatis, and all fungi by quantification of free ATP using BacTiter-Glo after 24 to 48 h (72 h for Z. tritici). All MIC assays were performed at least in triplicate. FE(III)-citrate was added at molar ratios of 1:1 to samples in DMSO to test compounds in their iron bound conformation.
A general note: Broth dilution looks for growth in wells or tubes with falling amounts of substance.

The next experiment deals with E. coli ATCC 35218. The class given is cell-based, Escherichia coli. As to conditions: E. coli ATCC 35218; broth microdilution, 96-well, EUCAST; OD600; chitinopeptins without iron (Iron -); at least triplicate. The protocol: as §1
Another experiment relates to E. coli MG1655. The class given is cell-based, Escherichia coli. As to conditions: broth microdilution, 96-well, EUCAST, OD600, Iron -, at least triplicate. The protocol:
as §1

In another experiment the test system is E. coli ATCC 25922 ΔTolC. The class given is cell-based, Escherichia coli. As to conditions: broth microdilution, 96-well, EUCAST, OD600, Iron -, at least triplicate. On the procedure: as §1
The subject of experiment [1] is Mycobacterium smegmatis ATCC 607. Put plainly: microbe, parasite or virus in culture. Type of experiment: cell-based. As to conditions: M. smegmatis ATCC 607; BHI broth + 1% Tween 80, 2 days 37°C; BacTiter-Glo; Iron -; at least triplicate. The protocol: as §1
The test system of experiment [2] is Staphylococcus aureus ATCC 25923. The class given is cell-based. The following applies: S. aureus ATCC 25923; broth microdilution, 96-well, EUCAST; OD600; Iron -; at least triplicate. On the procedure:
as §1

Experiment [3] relates to Acinetobacter baumannii ATCC 19606. The class given is cell-based. As to conditions: A. baumannii ATCC 19606; broth microdilution, 96-well, EUCAST; OD600; Iron -; at least triplicate. The protocol:
as §1

The test system of experiment [4] is Pseudomonas aeruginosa ATCC 27853. The class given is cell-based. The following applies: P. aeruginosa ATCC 27853; broth microdilution, 96-well, EUCAST; OD600; Iron -; at least triplicate. The protocol: as §1
In experiment [5] the test system is Listeria monocytogenes DSM 20600. The class given is cell-based. The following applies: L. monocytogenes DSM 20600; BHI broth + 1% Tween 80, 1 day 37°C; BacTiter-Glo; Iron -; at least triplicate. On the procedure:
as §1

Experiment [6] has as its system Moraxella catarrhalis ATCC 25238. The class given is cell-based. As to conditions: M. catarrhalis ATCC 25238; broth microdilution, 96-well, EUCAST; OD600; Iron -; at least triplicate. On the procedure: as §1
Another experiment has as its system Bacillus subtilis DSM 10. The class given is cell-based. As to conditions: B. subtilis DSM 10; broth microdilution, 96-well, EUCAST; OD600; Iron -; at least triplicate. On the procedure:
as §1

Experiment [7] has as its system Klebsiella pneumoniae ATCC 13883. Type of experiment: cell-based. The following applies: K. pneumoniae ATCC 13883; broth microdilution, 96-well, EUCAST; OD600; Iron -; at least triplicate. On the procedure: as §1
Experiment [8] relates to Micrococcus luteus DSM 20030. Type of experiment: cell-based. The following applies: M. luteus DSM 20030; broth microdilution, 96-well; free ATP (BacTiter-Glo); Iron -; at least triplicate. The protocol: as §1

Consider two substances from paper PMC9248904, “Genomic and Chemical Decryption of the Bacteroidetes Phylum for Its Potential to Biosynthesize Natural Products” (Microbiology Spectrum, 2022).

Bounds are passed on as bounds.

Take Rifamicin [reference compound]: the MIC in the experiment on P. aeruginosa PAO750 is listed as 16 µg/mL; against E. coli ATCC 35218, 4 µg/mL; against E. coli MG1655, 16 µg/mL; in the experiment on E. coli ATCC 25922 ΔTolC, 2 µg/mL; in experiment [1], 8 µg/mL; in [2], no more than 0.031 µg/mL. In addition, the MIC was 2 µg/mL in [3]; 32 µg/mL in experiment [4]; no more than 0.031 µg/mL in experiment [5]; no more than 0.031 µg/mL in [6]; no more than 0.031 µg/mL against Bacillus subtilis DSM 10; 8 µg/mL in experiment [7]. This substance also had an MIC in [8] of no more than 0.031 µg/mL.

Consider Gentamycin [reference compound], for which the MIC with P. aeruginosa PAO750 is 0.125 µg/mL; with E. coli ATCC 35218, 0.125 µg/mL; with E. coli MG1655, 0.5 µg/mL; against E. coli ATCC 25922 ΔTolC, 0.25 µg/mL; in [2] it was 0.063 µg/mL; in experiment [3], 16 µg/mL. Moreover, the MIC was 1 µg/mL in experiment [4]; no more than 0.031 µg/mL in experiment [5]; 0.125 µg/mL in [6]; no more than 0.031 µg/mL in the experiment with Bacillus subtilis DSM 10; no more than 0.031 µg/mL in experiment [7]; no more than 0.031 µg/mL in experiment [8].
